In patent US7531646B2, “β-D-ribosidase activity indicators with a chromogenic substrate” (priority 2001, dated 2009):
Read-outs that look alike come from different tables or passages of the source.

Columns and labels:
K. pneumoniae [1] = assay: Evaluation of galactoside substrates with metal salts forming chelates; settings: IPTG 30 mg/l; for Colour of colonies: K. pneumoniae
S. aureus = assay: Evaluation of benzophenone glucoside on agar (Table 6); type: cell-based; set-up: growth: key to the marks not given beside the values; settings: ferric ammonium nitrate at 500 mg/l
Text: (§1) This was achieved using a densitometer.
(§2) The background agar was beige.

S. sonnei = assay: as above; type: cell-based; set-up: growth: key to the marks not given beside the values; settings: ferric ammonium nitrate at 500 mg/l
Text: as §1, §2

E. coli [2] = assay: as above; type: cell-based; set-up: growth: key to the marks not given beside the values; settings: ferric ammonium nitrate at 500 mg/l
Text: as §1, §2

L. monocytogenes = assay: as above; settings: ferric ammonium nitrate at 500 mg/l
E. faecalis = assay: as above; settings: ferric ammonium nitrate at 500 mg/l
K. pneumoniae [3] = assay: as above; set-up: growth: key to the marks not given beside the values; settings: ferric ammonium nitrate at 500 mg/l
Gram positive organisms = assay: Evaluation of benzophenone glucoside on agar, screen; type: cell-based
Text: as §1, §2

Y. enterocolitica = assay: Evaluation of methoxyflavone riboside with metal salts; type: cell-based; settings: aluminium salt-containing medium; mixed culture with E. coli
Text: as §1
(§3) The substrate shown in the heading was synthesised from the same flavone starting material as Example 11 by a method analogous to that of Example 2. […] The species tested was E. coli. […] When the aluminium salt-containing medium was used with a mixed culture of E. coli and Yersinia entermcolitica, the E. coli colonies were bright yellow and stood out very clearly.

E. coli [4] = assay: as above; type: cell-based
Text: as §1, §3

Acinetobacter lwoffii = assay: Evaluation of phosphate substrate on agar (Table 3); type: cell-based; settings: Acinetobacter lwoffii ATCC 15309
Clostridium perfringens = type: cell-based; settings: Clostridium perfringens NCTC 8181; incubated anaerobically
Staphylococcus aureus = assay: Evaluation of phosphate substrate on agar (Table 3); type: cell-based; settings: Staphylococcus aureus NCTC 6571
Enterococcus faecalis = assay: as above; type: cell-based; settings: Enterococcus faecalis NCTC 775
All species tested = assay: Evaluation of phosphate substrate on agar, all species tested; type: cell-based
Yersinia enterocolitica = type: cell-based; settings: Yersinia enterocolitica NCTC 11197
Escherichia coli = assay: Evaluation of phosphate substrate on agar (Table 3); type: cell-based; settings: Escherichia coli NCTC 10418
bacterial enzymes = settings: cited from earlier work

3′,4′-Dihydroxyflavone-4′-β-galactopyranoside sodium salt
Colour of colonies (K. pneumoniae [1]; Metal Al, salt 500 mg/l): Yellow
Colour of colonies (K. pneumoniae [1]; Metal Ba, salt 500 mg/l): Pale yellow
Colour of colonies (K. pneumoniae [1]; Metal Bi, salt 500 mg/l): Rusty orange
Colour of colonies (K. pneumoniae [1]; Metal Co, salt 500 mg/l): (inhibits; no growth)
Colour of colonies (K. pneumoniae [1]; Metal Cu, salt 500 mg/l): Orange/brown
Colour of colonies (K. pneumoniae [1]; Metal Fe, salt 500 mg/l): Dark brown or black
Colour of colonies (K. pneumoniae [1]; Metal Mn, salt 500 mg/l): Pale orange
Colour of colonies (K. pneumoniae [1]; Metal Sn, salt 500 mg/l): Pale yellow
Colour of colonies (K. pneumoniae [1]; Metal Sr, salt 500 mg/l): Yellow
Colour of colonies (K. pneumoniae [1]; Metal Zn, salt 500 mg/l): (inhibits; no growth)
Colour of colonies (K. pneumoniae [1]; No metal): Diffuse pale yellow

COc1c(C(=O)c2ccccc2)ccc(O[C@@H]2O[C@H](CO)[C@@H](O)[C@H](O)[C@H]2O)c1O [3,4-dihydroxy-2-methoxybenzophenone-4-β-D-glucopyranoside]
colony colour (S. aureus): cream
growth (S. aureus): ++
colony colour (S. sonnei): cream
growth (S. sonnei): ++
colony colour (E. coli [2]): cream
growth (E. coli [2]): ++
colony colour (L. monocytogenes): pale black
colony colour (E. faecalis): cream
colony colour (K. pneumoniae [3]): red/brown
growth (K. pneumoniae [3]): ++
effect on growth (Gram positive organisms): growth inhibiting

COc1c(-c2ccc(O[C@@H]3O[C@H](CO)[C@H](O)[C@H](O)[C@H]3O)c(O)c2)oc2ccccc2c1=O [3′,4′-dihydroxy-3-methoxyflavone-4′-β-D-galactopyranoside]
Colour of K. pneumoniae colonies (K. pneumoniae [1]; Metal Al, salt 500 mg/l): Yellow
Colour of K. pneumoniae colonies (K. pneumoniae [1]; Metal Ba, salt 500 mg/l): Yellow
Colour of K. pneumoniae colonies (K. pneumoniae [1]; Metal Bi, salt 500 mg/l): Rusty orange
Colour of K. pneumoniae colonies (K. pneumoniae [1]; Metal Co, salt 500 mg/l): No growth
Colour of K. pneumoniae colonies (K. pneumoniae [1]; Metal Fe, salt 500 mg/l): Brown
Colour of K. pneumoniae colonies (K. pneumoniae [1]; Metal Mn, salt 500 mg/l): Pale orange
Colour of K. pneumoniae colonies (K. pneumoniae [1]; Metal Sn, salt 500 mg/l): Yellow
Colour of K. pneumoniae colonies (K. pneumoniae [1]; Metal Sr, salt 500 mg/l): Yellow
Colour of K. pneumoniae colonies (K. pneumoniae [1]; Metal Zn, salt 500 mg/l): No growth
Colour of K. pneumoniae colonies (K. pneumoniae [1]; No metal): Diffuse yellow

COc1c(-c2ccc(O[C@@H]3O[C@H](CO)[C@@H](O)[C@H]3O)c(O)c2)oc2ccccc2c1=O [3′,4′-dihydroxy-3-methoxyflavone-4′-β-D-ribofuranoside]
colour of Y. enterocolitica colonies (Y. enterocolitica): colourless
colour of precipitates (E. coli [4]; E. coli, in the presence of metal salts): coloured almost identically to the corresponding products referred to in Table 4
colour of E. coli colonies (E. coli [4]; aluminium salt-containing medium, mixed culture of E. coli and Yersinia): bright yellow

COc1c(-c2ccc(OP(=O)(O)O)c(O)c2)oc2ccccc2c1=O [Example 11]
Interpretation (Acinetobacter lwoffii): Negative
colony appearance (Acinetobacter lwoffii): colourless
Interpretation (Clostridium perfringens): Positive
colony appearance (Clostridium perfringens): dark green
Interpretation (Staphylococcus aureus): Positive
colony appearance (Staphylococcus aureus): dark green
Interpretation (Enterococcus faecalis): Positive
colony appearance (Enterococcus faecalis): small dark green/black
growth on this medium (All species tested): grew well
Interpretation (Yersinia enterocolitica): Negative
colony appearance (Yersinia enterocolitica): colourless
Interpretation (Escherichia coli): Positive
colony appearance (Escherichia coli): pale green

O=C1c2ccccc2C(=O)c2c1ccc(O[C@@H]1O[C@H](CO)[C@H](O)[C@H](O)[C@H]1O)c2O [alizarin β-D-galactopyranoside, alizarin β-D- galactopyranoside]
Colour of colonies (bacterial enzymes; in the presence of aluminium salts): bright-red
Colour of colonies (bacterial enzymes; in the presence of iron salts): bright-violet
